The experiment concerns the target EZH2 (Homo sapiens (Human), UniProt Q15910). Put plainly: PRC2 enzyme assay on peptide substrates. Particulars: PRC2 enzyme assays on peptide substrates; 4 nM enzyme, 30 min preincubation at 25° C.; read-out: EZH2 IC50. It counts as biochemical.

What is called IC50 is the point on the concentration scale where inhibition reaches its midpoint.

Sequence of EZH2 (Q15910 other isoform, or with tags, fused parts or gaps): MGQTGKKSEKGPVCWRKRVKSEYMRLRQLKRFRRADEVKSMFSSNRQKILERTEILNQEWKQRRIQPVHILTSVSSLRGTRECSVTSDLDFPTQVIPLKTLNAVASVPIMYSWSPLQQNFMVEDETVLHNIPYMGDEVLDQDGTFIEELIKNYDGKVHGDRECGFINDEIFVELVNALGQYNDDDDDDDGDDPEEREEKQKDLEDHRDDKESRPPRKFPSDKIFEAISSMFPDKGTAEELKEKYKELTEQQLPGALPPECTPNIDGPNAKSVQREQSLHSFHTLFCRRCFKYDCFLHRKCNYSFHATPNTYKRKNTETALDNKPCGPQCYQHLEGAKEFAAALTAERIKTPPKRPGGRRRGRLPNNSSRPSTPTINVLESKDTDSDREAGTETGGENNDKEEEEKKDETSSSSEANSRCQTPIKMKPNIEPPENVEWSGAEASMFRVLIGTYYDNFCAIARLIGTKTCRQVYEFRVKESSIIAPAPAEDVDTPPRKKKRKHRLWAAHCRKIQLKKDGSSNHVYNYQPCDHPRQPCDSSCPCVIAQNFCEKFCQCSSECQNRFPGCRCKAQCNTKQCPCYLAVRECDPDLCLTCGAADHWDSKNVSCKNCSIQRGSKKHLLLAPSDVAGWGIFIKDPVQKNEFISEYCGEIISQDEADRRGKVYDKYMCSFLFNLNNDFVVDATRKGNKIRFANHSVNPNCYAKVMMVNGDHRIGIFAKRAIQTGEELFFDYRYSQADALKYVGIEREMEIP
Sequence of EZH2 (O75530 whole entry partner): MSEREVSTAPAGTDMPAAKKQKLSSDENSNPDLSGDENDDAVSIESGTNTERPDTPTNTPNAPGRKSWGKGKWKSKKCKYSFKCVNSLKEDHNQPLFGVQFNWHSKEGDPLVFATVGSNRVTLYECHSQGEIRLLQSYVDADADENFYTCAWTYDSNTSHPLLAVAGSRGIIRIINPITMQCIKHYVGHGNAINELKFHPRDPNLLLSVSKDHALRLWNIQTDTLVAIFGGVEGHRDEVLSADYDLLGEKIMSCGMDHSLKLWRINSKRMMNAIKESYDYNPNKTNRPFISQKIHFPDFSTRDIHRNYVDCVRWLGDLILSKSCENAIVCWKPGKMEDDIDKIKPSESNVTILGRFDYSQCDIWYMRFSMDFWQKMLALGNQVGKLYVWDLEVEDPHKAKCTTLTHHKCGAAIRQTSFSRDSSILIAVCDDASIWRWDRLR
Sequence of EZH2 (Q15022 whole entry partner): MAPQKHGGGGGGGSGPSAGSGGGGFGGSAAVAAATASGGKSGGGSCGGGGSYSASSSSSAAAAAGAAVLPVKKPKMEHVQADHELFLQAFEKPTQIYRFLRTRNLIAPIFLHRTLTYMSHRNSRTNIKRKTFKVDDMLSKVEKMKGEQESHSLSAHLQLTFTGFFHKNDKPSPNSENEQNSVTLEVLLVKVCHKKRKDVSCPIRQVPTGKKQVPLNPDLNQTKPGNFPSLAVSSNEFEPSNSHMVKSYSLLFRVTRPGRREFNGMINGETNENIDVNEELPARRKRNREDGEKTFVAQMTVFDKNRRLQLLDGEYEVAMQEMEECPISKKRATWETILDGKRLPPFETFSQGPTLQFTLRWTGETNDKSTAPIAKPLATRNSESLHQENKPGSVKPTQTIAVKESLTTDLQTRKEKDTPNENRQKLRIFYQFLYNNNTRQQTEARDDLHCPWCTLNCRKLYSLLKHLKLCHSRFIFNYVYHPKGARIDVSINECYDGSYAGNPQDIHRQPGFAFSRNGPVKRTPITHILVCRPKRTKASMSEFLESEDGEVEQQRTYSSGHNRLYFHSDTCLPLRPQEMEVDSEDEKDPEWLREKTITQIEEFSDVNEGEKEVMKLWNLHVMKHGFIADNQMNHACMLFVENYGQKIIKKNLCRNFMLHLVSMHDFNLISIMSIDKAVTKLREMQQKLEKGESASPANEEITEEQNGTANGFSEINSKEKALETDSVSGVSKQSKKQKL
Sequence of EZH2 (Q09028 whole entry partner): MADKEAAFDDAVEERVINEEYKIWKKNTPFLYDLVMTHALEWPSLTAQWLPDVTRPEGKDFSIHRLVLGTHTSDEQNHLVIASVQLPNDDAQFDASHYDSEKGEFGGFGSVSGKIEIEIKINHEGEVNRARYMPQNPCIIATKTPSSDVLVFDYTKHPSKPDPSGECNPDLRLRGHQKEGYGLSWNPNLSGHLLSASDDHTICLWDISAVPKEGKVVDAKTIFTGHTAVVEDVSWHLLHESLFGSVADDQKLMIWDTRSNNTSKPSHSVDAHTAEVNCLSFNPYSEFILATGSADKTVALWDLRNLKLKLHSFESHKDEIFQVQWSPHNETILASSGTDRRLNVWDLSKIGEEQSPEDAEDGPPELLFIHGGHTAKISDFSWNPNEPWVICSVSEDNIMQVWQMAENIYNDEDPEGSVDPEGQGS

`Cc1cc(C)c(CNC(=O)c2cc(C3CCN(C(=O)[C@H](C)N)CC3)nc3c2cnn3C(C)C)c(=O)[nH]1` [Compound B-105]: the IC50 lay within 1 to 3 µM. As to `Cc1cc(C)c(CNC(=O)c2cc(N3CCC(N4CCN(C)CC4)CC3)nc3c2cnn3C(C)C)c(=O)[nH]1` [Compound B-106], the IC50 fell in the range of 1 to 3 µM. The figure for `Cc1cc(C)c(CNC(=O)c2cc(C3=CC(C)(C)NC(C)(C)C3)nc3c2cnn3C2CCNCC2)c(=O)[nH]1` [Compound B-107] is 1 to 3 µM; for `Cc1cc(C)c(CNC(=O)c2cc(N3CCC(N4CCN(C(=O)OC(C)(C)C)CC4)CC3)nc3c2cnn3C(C)C)c(=O)[nH]1` [Compound B-108] it is 1 to 3 µM. As for `Cc1cc(C)c(CNC(=O)c2cc(N3CCC(N)CC3)nc3c2cnn3C(C)C)c(=O)[nH]1` [Compound B-110], the IC50 was in the range of 1 to 3 µM. As to `CCOc1cc(C(=O)NCc2c(C)cc(C)[nH]c2=O)c2cnn(C(C)C)c2n1` [Compound B-112], the half-maximal inhibitory concentration (IC50) was in the range of 1 to 3 µM. As to `Cc1cc(C)c(CNC(=O)c2cc(CO)nc3c2cnn3C(C)C)c(=O)[nH]1` [Compound B-113], the concentration for half-maximal inhibition (IC50) lay in the range of 1 to 3 µM.

In the case of `Cc1cc(C)c(CNC(=O)c2cc(NCCS(C)(=O)=O)nc3c2cnn3C(C)C)c(=O)[nH]1` [Compound B-114], the IC50 lay within 1 to 3 µM. In the case of `Cc1cc(C)c(CNC(=O)c2cc(N3CCCCC3)nc3c2cnn3C(C)C)c(=O)[nH]1` [Compound B-115], the IC50 lay in the range of 1 to 3 µM. Regarding `Cc1cc(C)c(CNC(=O)c2cc(C3=CC(C)(C)NC(C)(C)C3)nc3c2cnn3C2CCN(C)CC2)c(=O)[nH]1` [Compound B-116], the IC50 is 1 to 3 µM. Turning to `CCc1cc(C(=O)NCc2c(C)cc(C)[nH]c2=O)c2cnn(C(C)C)c2n1` [Compound B-117], the IC50 lay within 1 to 3 µM. Consider `COc1cc(C(=O)NCc2c(C)cc(C)[nH]c2=O)c2cnn(C(C)C)c2n1` [Compound B-118], for which the concentration for half-maximal inhibition (IC50) lay in the range of 1 to 3 µM. With `Cc1cc(C)c(CNC(=O)c2cc(N3CCC(O)C3)nc3c2cnn3C(C)C)c(=O)[nH]1` (stereo not shown) [Compound B-119], the IC50 lay in the range of 1 to 3 µM. The figure for `C=C(Cn1ncc2c(C(=O)NCc3c(C)cc(C)[nH]c3=O)cc(C3=CC(C)(C)NC(C)(C)C3)nc21)C(=O)OC` [Compound B-120] is 1 to 3 µM. For `CC(=O)Nc1cc(C(=O)NCc2c(C)cc(C)[nH]c2=O)c2cnn(C(C)C)c2n1` [Compound B-121], the IC50 was 1 to 3 µM.

For the compound `CCc1c(C)[nH]c(=O)c(CNC(=O)c2cc(C3=CC(C)(C)NC(C)(C)C3)nc3c2cnn3C(C)C)c1C` [Compound B-122], the IC50 lay within 3 to 10 µM. With `Cc1cc(C)c(CNC(=O)c2cc(N3CCCC3)nc3c2cnn3C(C)C)c(=O)[nH]1` [Compound B-123], the concentration for half-maximal inhibition (IC50) lay within 3 to 10 µM. In the case of `COC(=O)/C=C/Cn1ncc2c(C(=O)NCc3c(C)cc(C)[nH]c3=O)cc(C3=CC(C)(C)NC(C)(C)C3)nc21` [Compound B-124], the half-inhibitory concentration (IC50) is 3 to 10 µM. Take `Cc1cc(C)c(CNC(=O)c2cc(N)nc3c2cnn3C(C)C)c(=O)[nH]1` [Compound B-125]: the IC50 fell in the range of 3 to 10 µM. Regarding `Cc1cc(C)c(CNC(=O)c2cc(C(O)CO)nc3c2cnn3C(C)C)c(=O)[nH]1` (stereo not shown) [Compound B-126], the IC50 was 3 to 10 µM. In the case of `Cc1cc(C)c(CNC(=O)c2ccnc3c2cnn3C(C)C)c(=O)[nH]1` [Compound B-127], the 50% inhibitory concentration (IC50) is 3 to 10 µM.

Regarding `Cc1cc(C)c(CNC(=O)c2cc(C(=O)N3CCC(N4CCN(C)CC4)CC3)nc3c2cnn3C(C)C)c(=O)[nH]1` [Compound B-128], the IC50 was 3 to 10 µM. For the compound `Cc1cc(C)c(CNC(=O)c2cc(C3CCOCC3)nc3c2cnn3C(C)C)c(=O)[nH]1` [Compound B-129], the 50% inhibitory concentration (IC50) was in the range of 3 to 10 µM.

Regarding `Cc1cc(C)c(CNC(=O)c2cc(C3=CC(C)(C)NC(C)(C)C3)nc3c2cnn3CC2CC2)c(=O)[nH]1` [Compound B-130], the 50% inhibitory concentration (IC50) lay in the range of 3 to 10 µM. In the case of `CCn1ncc2c(C(=O)NCc3c(C)cc(C)[nH]c3=O)cc(C3=CC(C)(C)NC(C)(C)C3)nc21` [Compound B-131], the half-inhibitory concentration (IC50) lay in the range of 3 to 10 µM. `Cc1cc(C)c(CNC(=O)c2cc(C(=O)N(C)CCN(C)C)nc3c2cnn3C(C)C)c(=O)[nH]1` [Compound B-133]: the IC50 is 3 to 10 µM. Then `Cc1cc(C)c(CNC(=O)c2cc(N(C)CC(O)CO)nc3c2cnn3C(C)C)c(=O)[nH]1` (stereo not shown) [Compound B-134], with 3 to 10 µM; and `Cc1cc(C)c(CNC(=O)c2cc(N(C)CCN(C)C)nc3c2cnn3C(C)C)c(=O)[nH]1` [Compound B-135], with 3 to 10 µM.

`Cc1cc(C)c(CNC(=O)c2cc(N(C)C)nc3c2cnn3C(C)C)c(=O)[nH]1` [Compound B-136]: the half-maximal inhibitory concentration (IC50) was 3 to 10 µM.

With `CCc1c(C)[nH]c(=O)c(CNC(=O)c2cc(C3CC(C)(C)NC(C)(C)C3)nc3c2cnn3C(C)C)c1C` [Compound B-137], the concentration for half-maximal inhibition (IC50) fell in the range of 3 to 10 µM.

Take `Cc1cc(C)c(CNC(=O)c2cc(C(=O)N3CCN(C)CC3)nc3c2cnn3C(C)C)c(=O)[nH]1` [Compound B-138]: the half-maximal inhibitory concentration (IC50) is 3 to 10 µM. On to `Cc1[nH]c(=O)c(CNC(=O)c2cc(C3=CC(C)(C)NC(C)(C)C3)nc3c2cnn3C(C)C)c(C)c1C` [Compound B-139], for which the half-maximal inhibitory concentration (IC50) was in the range of 3 to 10 µM. The figure for `Cc1cc(C)c(CNC(=O)c2cc(C(=O)NCCN(C)C)nc3c2cnn3C(C)C)c(=O)[nH]1` [Compound B-140] is 3 to 10 µM. Then `Cc1cc(C)c(CNC(=O)c2cc(C(=O)N(C)C)nc3c2cnn3C(C)C)c(=O)[nH]1` [Compound B-141], with 3 to 10 µM; and `Cc1cc(C)c(CNC(=O)c2cc(C3CCCCC3)nc3c2cnn3C(C)C)c(=O)[nH]1` [Compound B-142], with 3 to 10 µM; and `Cc1[nH]c(=O)c(CNC(=O)c2cc(C3=CC(C)(C)NC(C)(C)C3)nc3c2cnn3C(C)C)c(C)c1Cc1ccccc1` [Compound B-143], with 3 to 10 µM. As to `Cc1cc(C)c(CNC(=O)c2cc(C3=CC(C)(C)NC(C)(C)C3)nc3c2cnn3CCC#N)c(=O)[nH]1` [Compound B-144], the 50% inhibitory concentration (IC50) lay within 3 to 10 µM. For `Cc1[nH]c(=O)c(CNC(=O)c2cc(C3CC(C)(C)NC(C)(C)C3)nc3c2cnn3C(C)C)c(C)c1Cc1ccccc1` [Compound B-145], the concentration for half-maximal inhibition (IC50) is 10 to 50 µM. Regarding `Cc1cc(C)c(CNC(=O)c2cc(C3=CC(C)(C)NC(C)(C)C3)nc3c2cnn3CCO)c(=O)[nH]1` [Compound B-146], the concentration for half-maximal inhibition (IC50) fell in the range of 10 to 50 µM. As for `Cc1cc(C)c(CNC(=O)c2cc(O)nc3c2cnn3C(C)C)c(=O)[nH]1` [Compound B-147], the IC50 was 10 to 50 µM. Consider `Cc1cc(C)c(CNC(=O)c2cc(C3=CC(C)(C)NC(C)(C)C3)nc3c2cnn3Cc2ccccc2)c(=O)[nH]1` [Compound B-151], for which the IC50 was 10 to 50 µM. On to `Cc1cc(C)c(CNC(=O)c2cc(C3=CC(C)(C)NC(C)(C)C3)nc3c2cnn3CCN(C)C)c(=O)[nH]1` [Compound B-152], for which the half-inhibitory concentration (IC50) is 10 to 50 µM. The figure for `Cc1cc(C)c(CNC(=O)c2cc(C3=CC(C)(C)NC(C)(C)C3)nc3c2cnn3C)c(=O)[nH]1` [Compound B-153] is 10 to 50 µM. The figure for `CC(=O)n1ncc2c(C(=O)NCc3c(C)cc(C)[nH]c3=O)cc(C3=CC(C)(C)NC(C)(C)C3)nc21` [Compound B-154] is 10 to 50 µM. In the case of `C=CCn1ncc2c(C(=O)NCc3c(C)cc(C)[nH]c3=O)cc(C3=CC(C)(C)NC(C)(C)C3)nc21` [Compound B-155], the IC50 lay within 10 to 50 µM. As to `CCOC(=O)Cn1ncc2c(C(=O)NCc3c(C)cc(C)[nH]c3=O)cc(C3=CC(C)(C)NC(C)(C)C3)nc21` [Compound B-156], the IC50 is 10 to 50 µM.

The record behind these values is patent US9637472B2, “Substituted 6,5-fused bicyclic heteroaryl compounds” (Epizyme, Inc., priority 2011, dated 2017).
